Assay [1] has as its system MDA-MB-231. In words: Antiproliferative activity against human MDA-MB-231 cells after 48 hrs by CCK8 assay. Format: functional, cell-based. As to conditions: MDA-MB-231, 48 h.
Assay [2] concerns A-431. In words: Antiproliferative activity against human A431 cells after 48 hrs by CCK8 assay. The assay is classed as functional, cell-based. As to conditions: A-431, 48 h. In general terms: Tetrazolium assays rely on reduction of a dye to a coloured formazan, in cell work by metabolically active cells.
In assay [3] the test system is K562. The assay can be described thus: Antiproliferative activity against human K562 cells after 48 hrs by CCK8 assay. Format: functional, cell-based. The conditions noted are these: K562, 48 h.
The subject of assay [4] is MCF7. In words: Antiproliferative activity against human MCF7 cells after 48 hrs by CCK8 assay. The conditions noted are these: MCF7, 48 h. The assay is classed as functional, cell-based.
Assay [5] addresses T1, Aurora kinase A (Homo sapiens, UniProt O14965).
T1 sequence (O14965 whole entry): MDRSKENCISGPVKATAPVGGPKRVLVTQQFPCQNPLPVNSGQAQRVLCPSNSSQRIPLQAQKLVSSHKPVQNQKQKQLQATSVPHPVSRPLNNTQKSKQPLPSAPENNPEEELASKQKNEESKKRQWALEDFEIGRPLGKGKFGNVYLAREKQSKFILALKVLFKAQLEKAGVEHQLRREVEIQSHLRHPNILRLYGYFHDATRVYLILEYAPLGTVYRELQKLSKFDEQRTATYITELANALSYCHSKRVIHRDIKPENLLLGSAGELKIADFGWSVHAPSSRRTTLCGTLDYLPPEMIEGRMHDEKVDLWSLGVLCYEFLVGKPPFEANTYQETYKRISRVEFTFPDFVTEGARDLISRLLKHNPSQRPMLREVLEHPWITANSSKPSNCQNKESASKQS
In words: Inhibition of AURKA (unknown origin) using FAM-labeled peptide substrate preincubated for 10 mins followed by substrate addition measured after 60 mins by caliper assay.

Assay [6] deals with HCT-116. In words: Antiproliferative activity against human HCT116 cells after 48 hrs by CCK8 assay. Format: functional, cell-based. As to conditions: HCT-116, 48 h.
Assay [7] concerns the target Aurora kinase B (Homo sapiens, UniProt Q96GD4). In words: Inhibition of AURKB (unknown origin) using FAM-labeled peptide substrate preincubated for 10 mins followed by substrate addition measured after 60 mins by caliper assay.
In assay [8] the test system is HeLa. The assay can be described thus: Antiproliferative activity against human HeLa cells after 48 hrs by CCK8 assay. Format: functional, cell-based.
Assay [9] relates to U-937. The assay can be described thus: Antiproliferative activity against human U937 cells after 48 hrs by CCK8 assay. Format: functional, cell-based. The conditions noted are these: U-937, 48 h.
Assay [10] deals with MDA-MB-231. In words: Induction of aberrant spindle formation with tripolar and tetrapolar occurrence in human MDA-MB-231 cells at 1 uM after 48 hrs by DAPI staining based immunofluorescence assay. Format: functional, cell-based.
Assay [11] deals with MDA-MB-231. The assay can be described thus: Inhibition of alpha-tubulin in human MDA-MB-231 cells assessed as abolishment of regular location of protein at 0.5 uM after 48 hrs by DAPI staining based immunofluorescence assay. The assay is classed as cell-based.
Assay [12] has as its system MDA-MB-231. The assay can be described thus: Induction of chromosome alignment defects in human MDA-MB-231 cells at 1 uM after 48 hrs by DAPI staining based immunofluorescence assay. The assay is classed as functional, cell-based.

The structures appear in SMILES notation. Activity calls are given as the source filed them. No cut-off for these calls is given here.

Aurora kinase B, sequence (Q96GD4 whole entry): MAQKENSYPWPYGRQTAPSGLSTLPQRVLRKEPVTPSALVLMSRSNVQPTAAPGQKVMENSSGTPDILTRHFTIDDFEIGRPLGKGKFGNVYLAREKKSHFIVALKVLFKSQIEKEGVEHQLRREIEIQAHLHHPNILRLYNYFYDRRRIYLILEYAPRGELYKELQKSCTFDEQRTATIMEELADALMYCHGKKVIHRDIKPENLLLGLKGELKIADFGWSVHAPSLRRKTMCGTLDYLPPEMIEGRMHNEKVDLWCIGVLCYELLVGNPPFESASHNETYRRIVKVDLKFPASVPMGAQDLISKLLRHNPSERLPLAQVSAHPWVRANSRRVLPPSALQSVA

Broadly, the IC50 is the point on the concentration scale where inhibition reaches its midpoint. Read a high IC50 as lower potency. `COc1ccc(Nc2nc(Nc3cc(C)[nH]n3)cc(N3CCN(C)CC3)n2)cc1OC`: the IC50 worked out at 459 nM in assay [1]; 778 nM in [2]; 462 nM in assay [3]; 6540 nM in assay [4]; 38 nM in assay [5]; 777 nM in [6]. In addition, the IC50 turned out to be 452 nM in assay [7], 678 nM in assay [8] and 150 nM in assay [9].
Regarding `Cc1cc(Nc2cc(N3CCN(C)CC3)nc(Nc3ccc(Cl)c(Cl)c3)n2)n[nH]1`, the IC50 was determined as 84.9 nM in assay [1]; 129 nM in assay [2]; 128 nM in assay [3]; 552 nM in assay [4]; 33 nM in [5]; 106 nM in [6]. For the same compound, the IC50 in [7] was 50 nM; in assay [8], 299 nM; in assay [9] it was 17.9 nM.
Consider `COC(=O)c1ccc(Nc2nc(Nc3cc(C)[nH]n3)cc(N3CCN(C)CC3)n2)cc1OC`, for which the IC50 in assay [1] was found to be 872 nM; in [2], 1220 nM; in assay [3], 762 nM; in [4], 10300 nM; in [5], 67 nM; in assay [6], 1140 nM. Besides, the IC50 in assay [7] is 442 nM; in assay [8], 872 nM; in [9] it was 545 nM.
As for `Cc1cc(Nc2cc(N3CCN(C)CC3)nc(Nc3ccc4c(c3)OCO4)n2)n[nH]1`, the IC50 in assay [1] was 206 nM; in assay [2], 419 nM; in assay [3] it was 233 nM; in [4] it was 911 nM; in assay [5] it was 20 nM; in assay [6] it was 719 nM. Besides, the results for the IC50 in [7], in assay [8] and in assay [9] were 91.7 nM, 457 nM and 58.4 nM, respectively.
On to `Cc1cc(Nc2cc(N3CCN(C)CC3)nc(Nc3cccc(F)c3)n2)n[nH]1`, for which the IC50 in assay [1] stood at 166 nM; in assay [2], 201 nM; in [3] it was 184 nM; in assay [4], 1260 nM; in assay [5], 25 nM; in assay [6] it was 317 nM. Besides, the IC50 is 102 nM in assay [7], 486 nM in assay [8] and 33.1 nM in assay [9].
As for `Cc1cc(Nc2cc(N3CCN(C)CC3)nc(Nc3ccc(F)c(F)c3)n2)n[nH]1`, the IC50 in assay [1] was 160 nM; in [2], 177 nM; in assay [3], 195 nM; in [4] it was 1290 nM; in [5], 17 nM; in assay [6], 339 nM. Further, the IC50 in [7] is 89.2 nM; in assay [8] it was 438 nM; in assay [9], 29.9 nM.
With `Cc1cc(Nc2cc(N3CCN(C)CC3)nc(Nc3ccc(Cl)c(F)c3)n2)n[nH]1`, the IC50 amounted to 155 nM in assay [1]; 136 nM in [2]; 218 nM in assay [3]; 818 nM in assay [4]; 31 nM in [5]; 252 nM in assay [6]. Besides, the IC50 in assay [7] came to 101 nM; in [8], 374 nM; in [9], 24.8 nM.
Consider `COC(=O)c1ccc(Nc2nc(Nc3cc(C)[nH]n3)cc(N3CCN(C)CC3)n2)cc1F`, for which the IC50 in assay [1] is 238 nM; in assay [2], 375 nM; in [3], 393 nM; in assay [4], 7630 nM; in [5], 35 nM; in assay [6], 688 nM. In addition, the 50% inhibitory concentration (IC50) in [7] came out at 145 nM; in assay [8] it was 507 nM; in [9], 94.2 nM.
Regarding `Cc1cc(Nc2cc(N3CCOCC3)nc(Nc3ccc(F)c(Cl)c3)n2)n[nH]1`, the IC50 was 101 nM in assay [1]; 213 nM in [3]; 577 nM in [4]; 6.3 nM in assay [5]; 34.6 nM in assay [7]; 464 nM in assay [8]. This compound also registered an IC50 in [9] of 24 nM.
For the compound `Cc1cc(Nc2cc(N3CCN(C)CC3)nc(Nc3ccc(F)cc3)n2)n[nH]1`, the IC50 in assay [1] was found to be 255 nM; in assay [2] it was 340 nM; in assay [3] it was 357 nM; in assay [4], 873 nM; in assay [5], 23 nM; in assay [6] it was 653 nM. In addition, the IC50 in [7] was determined as 75.1 nM; in assay [8] it was 680 nM; in [9], 43.2 nM.
For `COc1cc(Nc2ncc3c(n2)-c2ccc(Cl)cc2C(c2c(F)cccc2OC)=NC3)ccc1C(=O)O`, the outcome in assay [10] and in [12] was Active. The inhibition entry in assay [11] was “Active”.

For the origin of these results see ChEMBL document CHEMBL4145494, “Synthesis and biological evaluation of aurora kinases inhibitors based on N-trisubstituted pyrimidine scaffold” (Eur J Med Chem, 2018).
